Numbers after ± are expanded uncertainties.
settings: Crystal

| Normal melting temperature [°C] | Compound |
| --- | --- |
| 1.2 ± 1.2 | CC12CCC(CC1)C(C)(C)O2 [1,3,3-trimethyl-2-oxabicyclo[2.2.2]octane] |
| -68.5 ± 0.8 | Cc1ccc(C(C)C)cc1 [1-(1-methylethyl)-4-methylbenzene] |
| 51.1 ± 0.8 | C=C1C2CCC(C2)C1(C)C (centres undefined) [2,2-dimethyl-3-methylenebicyclo[2.2.1]heptane] |
| -61.5 ± 0.8 | C=C1CC[C@H]2C[C@@H]1C2(C)C [(1S,5S)-6,6-dimethyl-2-methylenebicyclo[3.1.1]heptane] |
